Consider one molecule from patent US9205073B2, “Method for treating virus infection using derivative of aniline” (CHINA MEDICAL UNIVERSITY, priority 2014, dated 2015).

Series [1] can be described thus: MTT assay, cell survival / CC50 in RD cells. The settings on record: human, read-out: concentration of 50% cytotoxicity (CC50). Type of series: cell-based. How it is done:
(§1) In this example, 3-(4,5-dimethylthiazol-2-yl)-2,5-diphenyl tetrazolium bromide (MTT) was used to determine if the survival rate of BHK-21 cells, TE671cells and RD cells would be influenced when being treated with different concentrations of compound 1 prepared in Example 1. The concentration of 50% cytotoxicity (CC50) of compound 1 in BHK-21 cells, TE671cells and RD cells was also calculated.
(§2) MTT is a water-soluble tetrazolium salt which can react in the mitochondrial respiratory chain in living cells to metabolize and reduce the tetrazolium bromide shown in the structure of MTT and to form an water-insoluble purple crystal formazan under the reaction of succinate dehydrogenase (SDH) and cytochrome c (cyt c). The amount of the produced crystal is directly proportional to the number of living cells (because the SDH will disappear from dead cells, and thus, the MTT cannot be reduced). Furthermore, a mitochondrium is an organelle in cells that is most sensitive to the environment, and thus, the MTT assay can serve as a marker for the survival rate of cells treated by the drug.
(§3) BHK-21 cells, TE671cells and RD cells were cultured in a 96-well culture plate, respectively, with an initial density of 3×10^3 per well, and with 100 μl of 2% FBS-containing MEM medium per well. […] The absorbances of the samples were measured by ELISA at a wavelength of 570/630 nm.

Series [2] can be described thus: MTT assay, cell survival / CC50 in BHK-21 cells. As to conditions: hamster, read-out: concentration of 50% cytotoxicity (CC50). Type of series: cell-based. How it is done: as §1, §2, §3
The next series deals with DEN2. Briefly: Dengue virus infection-induced cytopathic effect in BHK-21 cells. Type of series: cell-based, dengue virus type 2. As to conditions: infected 72 hours, M.O.I.=0.1, compound 25 μM. Here is the method: BHK-21 cells were cultured in a 24-well culture plate at an initial density of 3×10^4 per well with 1 ml of 2% FBS-containing MEM medium per well. The cells were incubated in an incubator (37° C., 5% CO2) overnight, and the medium was removed until the cells adhered to the plate. Then, 1 ml of fresh 2% FBS-containing MEM medium was simultaneously added into each well of the culture plate; the cells were infected with the DEN2 virus strain (M.O.I.=0.1); different concentrations of compound 1 (the final concentrations were 0, 2.5 and 25 μM, respectively) were added into different wells. BHK-21 cells were incubated in an incubator (37° C., 5% CO2) for 72 hours, and then their morphology was observed by photography.

The next series concerns JEV T1P1. Briefly: Apoptosis test (Annexin V/PI flow cytometry), JEV T1P1-infected BHK-21 cells. The series is classed as cell-based, Japanese encephalitis virus. As to conditions: JEV T1P1 infection 36 hours; infected without compound 59.05%. Here is the method: BHK-21 cells and/or TE671cells were separately cultured in a 24-well culture plate, with an initial density of 3×10^4 per well, and with 1 ml of 2% FBS-containing MEM medium per well. The cells were incubated in an incubator (37° C., 5% CO2) overnight, and the medium was removed until the cells adhered to the plate. Then, fresh 2% FBS-containing MEM medium was simultaneously added into each well of the culture plate. The cells were infected with a JEV T1P1 virus strain, wherein the amount of JEV T1P1 used to infect BHK-21 cells was a multiplicity of infection (M.O.I.)=0.1, and the amount of JEV T1P1 used to infect TE671 cells was M.O.I.=0.05. Different concentrations of compound 1 (final concentrations were 0, 2.5, 25 and 125 μM, respectively) were added into different wells. The culture plate was placed into an incubator (37° C., 5% CO2) and maintained therein.
BHK-21 cells and TE 671 cells were washed with PBS after being infected with the JEV T1P1 virus strain for 36 hours in the above experiment (1). Then, PBS was removed. Trypsin-EDTA (150 μl) was added into each well. The cells were incubated in an incubator at 37° C. for 3 minutes. Then, 1 ml MEM medium was added into each well to neutralize EDTA. […] The cells were maintained in the dark for 5 to 10 minutes, and then analyzed by flow cytomerty.

A short description of series [3]: MTT assay, cell survival / CC50 in TE671 cells. The series is classed as cell-based. The settings on record: human, read-out: concentration of 50% cytotoxicity (CC50). How it is done:
as §1, §2, §3

Some results are limits rather than exact numbers.

Regarding `CCOC(=O)C1=C(Nc2cc(C)cc(C)c2)OCC1=O` [Compound 1, ethyl 2-(3′,5′-dimethylanilino)-4-oxo-4,5-dihydrofuran-3-carboxylate], the CC50 at 48 h in series [1] is 222 µM; in series [2], above 500 µM; in series [3], 189 µM. In the series with DEN2, the DEN2-induced cytopathic effect entry is given as “effectively inhibited”. The “ratio of BHK-21 cells getting into late apoptosis” value in the series with JEV T1P1 is reported as “reduced by compound 1 in a concentration dependent manner”.
